According to US10023593B2, “ALK kinase inhibitor, and preparation method and uses thereof” (BEIJING PEARL BIOTECHNOLOGY LIMITED LIABILITY COMPANY, priority 2014, dated 2018):

Tests used:
Wild Type ALK kinase = molecular target: T1, Wild Type ALK kinase (Homo sapiens, UniProt Q9UM73); test: HTRF KinEASE-TK assay, inhibitory activity on wild type ALK kinase; type: biochemical; details: wild type ALK 1 ng/μl, substrate 1 μM, 30° C. 35 minutes, read-out: Inhibition on ALK kinases (wildtype), IC50
T1 construct: purchased Sino-US Crown Bioscience, Inc. batch number ALK 20110607
T1 sequence (Q9UM73 19-1620): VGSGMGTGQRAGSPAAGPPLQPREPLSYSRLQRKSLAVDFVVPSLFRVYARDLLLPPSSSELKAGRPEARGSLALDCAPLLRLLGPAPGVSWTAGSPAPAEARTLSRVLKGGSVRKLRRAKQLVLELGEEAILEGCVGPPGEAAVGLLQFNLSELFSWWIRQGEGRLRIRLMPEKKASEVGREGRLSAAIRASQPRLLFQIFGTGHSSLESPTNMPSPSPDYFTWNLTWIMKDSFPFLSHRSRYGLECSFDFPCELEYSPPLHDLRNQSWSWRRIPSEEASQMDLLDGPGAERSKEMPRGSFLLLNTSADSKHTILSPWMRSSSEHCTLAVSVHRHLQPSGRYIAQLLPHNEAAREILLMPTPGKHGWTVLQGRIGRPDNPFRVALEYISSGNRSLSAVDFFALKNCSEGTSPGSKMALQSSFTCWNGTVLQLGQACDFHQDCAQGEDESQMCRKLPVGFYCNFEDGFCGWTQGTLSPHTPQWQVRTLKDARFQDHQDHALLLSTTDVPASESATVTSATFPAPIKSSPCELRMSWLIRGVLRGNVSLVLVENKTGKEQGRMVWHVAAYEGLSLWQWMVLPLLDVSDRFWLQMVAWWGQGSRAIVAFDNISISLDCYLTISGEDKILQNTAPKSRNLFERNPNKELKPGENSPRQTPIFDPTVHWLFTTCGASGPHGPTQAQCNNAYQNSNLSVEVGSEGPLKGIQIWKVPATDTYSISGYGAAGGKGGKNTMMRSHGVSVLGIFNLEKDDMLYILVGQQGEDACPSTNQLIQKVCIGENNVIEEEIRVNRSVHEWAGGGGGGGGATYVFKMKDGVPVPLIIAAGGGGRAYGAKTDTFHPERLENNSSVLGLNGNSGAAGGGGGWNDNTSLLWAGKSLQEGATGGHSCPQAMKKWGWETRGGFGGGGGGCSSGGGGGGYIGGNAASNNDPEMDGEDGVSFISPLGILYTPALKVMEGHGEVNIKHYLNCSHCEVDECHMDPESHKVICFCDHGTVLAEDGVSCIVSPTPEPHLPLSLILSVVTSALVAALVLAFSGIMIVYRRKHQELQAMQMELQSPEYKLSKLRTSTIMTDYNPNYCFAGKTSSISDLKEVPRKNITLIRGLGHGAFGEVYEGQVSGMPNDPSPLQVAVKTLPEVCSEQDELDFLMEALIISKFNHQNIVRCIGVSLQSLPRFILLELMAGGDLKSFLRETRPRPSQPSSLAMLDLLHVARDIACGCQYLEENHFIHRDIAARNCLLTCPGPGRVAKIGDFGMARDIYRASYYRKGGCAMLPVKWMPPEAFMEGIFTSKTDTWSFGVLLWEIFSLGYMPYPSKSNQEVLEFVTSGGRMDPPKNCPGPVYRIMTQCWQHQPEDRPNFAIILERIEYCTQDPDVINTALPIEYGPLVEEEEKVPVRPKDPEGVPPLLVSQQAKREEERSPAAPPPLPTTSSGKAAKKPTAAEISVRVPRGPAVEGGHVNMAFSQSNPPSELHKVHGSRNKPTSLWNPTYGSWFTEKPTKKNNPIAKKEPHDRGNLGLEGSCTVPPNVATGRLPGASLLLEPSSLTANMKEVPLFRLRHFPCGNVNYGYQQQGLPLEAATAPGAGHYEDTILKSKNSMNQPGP
Summary of the method: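 ALK kinase at 1 ng/μl and substrate at 1 μM were reacted with compound (1% DMSO) in buffer with 5 mM MgCl2 and 1 mM DTT for 35 min at 30 °C. HTRF detection used the 665/615 ratio, normalised to no-compound wells and to 10.4 μM LDK-378 wells. IC50 came from a concentration-response fit.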

NCI-H2228 cell line = test: CellTiter-Glo cell proliferation inhibition on NCI-H2228 cell line; type: cell-based; details: Homo sapiens, NCI-H2228 cells, 5000 cells/well, 4 days drug treatment
Summary of the method: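 NCI-H2228 cells, 5000/well in RPMI-1640 + 10% FBS, treated with compounds 2 h after seeding (0.5% DMSO final) for 4 days at 37° C. Viability by CellTiter-Glo luminescence; inhibition relative to DMSO control, IC50 from curve fit.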

SMILES | IC50 (Wild Type ALK kinase) | IC50 (NCI-H2228 cell line; 96 h) | IC50 (NCI-H2228 cell line; NCI-H2228, 96 h)
Cc1cc(Nc2ncc(Cl)c(Nc3cn(C)nc3S(=O)(=O)C(C)C)n2)c(OC2CC2)cc1C1CCN(CCN(C)C)CC1 [Final product 146, 5-chloro-N^2-(2-cyclopropoxy-4-(1-(2-(dimethylamino)ethyl)piperidin-4-yl)-5-methylphenyl)-N^4-(3-(isopropylsulfonyl)-1-methyl-1H-pyrazol-4-yl)-pyrimidin-2,4-diamine] | 2 nM | 199 nM | –
Cc1cc(Nc2ncc(Cl)c(Nc3cn(C)nc3S(=O)(=O)C(C)C)n2)c(OC(C)C)cc1C1CCN(C(C)C)CC1 [Final product 126] | 7 nM | – | 142 nM
Cc1cc(Nc2ncc(Cl)c(Nc3cn(C)nc3S(=O)(=O)C(C)C)n2)c(OC2CC2)cc1C1=CCNCC1 [Final product 25] | 2 nM | – | 190 nM
Cc1cc(Nc2ncc(Cl)c(Nc3cn(C)nc3S(=O)(=O)C(C)C)n2)c(OC(CF)CF)cc1C1CCN(C)CC1 [Final product 34] | 10 nM | – | 403 nM
Cc1cc(Nc2ncc(Cl)c(Nc3cn(C)nc3S(=O)(=O)C(C)C)n2)c(OC2CC2)cc1C1CCOCC1 [Final product 107] | 9 nM | – | 174 nM
CC(C)S(=O)(=O)c1nn(C2CC2)cc1Nc1nc(Nc2cc(F)c(C3CCN(C)CC3)cc2OC2CC2)ncc1Cl [Final product 46] | 2 nM | – | 127 nM
CC(C)S(=O)(=O)c1nn(C)cc1Nc1nc(Nc2ccc(C3CCN(C)CC3)cc2OC(F)(F)F)ncc1Cl [Final product 30] | 7 nM | – | 93 nM
CC(=O)N1CCC(c2cc(OC3CC3)c(Nc3ncc(Cl)c(Nc4cn(C)nc4S(=O)(=O)C(C)C)n3)cc2C)CC1 [Final product 160, 1-acetyl-4-(4-(5-chloro-4-(3-(isopropylsulfonyl)-1-methyl-1H-pyrazol-4-amino)pyrimidin-2-amine)-5-cyclopropoxy-2-methylphenyl)piperidine] | 7 nM | – | 35 nM
Cc1cc(Nc2ncc(Cl)c(Nc3cn(C)nc3S(=O)(=O)C(C)C)n2)c(C(F)(F)F)cc1C1CCNCC1 [Final product 11] | 22 nM | – | 641 nM
Cc1cc(Nc2ncc(Cl)c(Nc3cn(C)nc3S(=O)(=O)CC(C)C)n2)c(OC2CC2)cc1C1CCN(CCO)CC1 [Final product 137] | 4 nM | – | 103 nM
Cc1cc(Nc2ncc(Cl)c(Nc3cn(C)nc3S(=O)(=O)C(C)C)n2)c(OC(CF)CF)cc1C1CCNCC1 [Final product 8] | 9 nM | – | 562 nM
CC(C)S(=O)(=O)c1nn(C)cc1Nc1nc(Nc2cc(C#N)c(C3CCNCC3)cc2OC2CC2)ncc1Cl [Final product 29] | 4 nM | – | 159 nM
CCN1CCC(c2cc(OC(C)C)c(Nc3ncc(Cl)c(Nc4cn(C)nc4S(=O)(=O)C(C)C)n3)cc2C)CC1 [Final product 118] | 5 nM | – | 101 nM
CCNC(=O)N1CCC(c2cc(OC3CC3)c(Nc3ncc(Cl)c(Nc4cn(C)nc4S(=O)(=O)C(C)C)n3)cc2C)CC1 [Final product 174, 4-(4-(5-chloro-4-(3-(isopropylsulfonyl)-1-methyl-1H-pyrazol-4-amine)pyrimidin-2-amine)-5-cyclopropoxy-2-methyl-phenyl)-N-ethyl-piperidin-1-carboxamide] | 4 nM | – | 82 nM
Cc1cc(Nc2ncc(Cl)c(Nc3cn(C4CC4)nc3S(=O)(=O)C(C)C)n2)c(OC(C)C)cc1C1CCNCC1 [Final product 5] | 6 nM | – | 248 nM
Cc1cc(Nc2ncc(Cl)c(Nc3cn(C)nc3S(=O)(=O)C(C)C)n2)c(OC2CC2)cc1C1CCN(C(=O)C(F)(F)F)CC1 [Final product 161, 1-trifluoroacetyl-4-(4-(5-chloro-4-(3-(isopropylsulfonyl)-1-methyl-1H-pyrazol-4-amino)pyrimidin-2-amine)-5-cyclopropoxy-2-methylphenyl)piperidine] | 32 nM | – | 47 nM
CC(C)S(=O)(=O)c1nn(C2CC2)cc1Nc1nc(Nc2cc(F)c(C3CCNCC3)cc2OC2CC2)ncc1Cl [Final product 21] | 1 nM | – | 62 nM
CCC(C)S(=O)(=O)c1nn(C)cc1Nc1nc(Nc2cc(C)c(C3CCNCC3)cc2OC(C)C)ncc1Cl (stereo not shown) [Final product 7] | 8 nM | – | 224 nM
CCOc1cc(C2CCN(CCO)CC2)c(C)cc1Nc1ncc(Cl)c(Nc2cn(C)nc2S(=O)(=O)C(C)C)n1 [Final product 135] | 3 nM | – | 33 nM
Cc1cc(Nc2ncc(Cl)c(Nc3cn(C)nc3S(=O)(=O)C(C)C)n2)c(OC2CC2)cc1C1CCN(C(=O)CN(C)C)CC1 [Final product 165, 1-(2-dimethylamino)acetyl-4-(4-(5-chloro-4-(3-(isopropylsulfonyl)-1-methyl-1H-pyrazol-4-amino)pyrimidin-2-amino)-5-cyclopropoxy-2-methylphenyl)piperidine] | 2 nM | – | 35 nM
Cc1cc(Nc2ncc(Cl)c(Nc3cn(C)nc3S(=O)(=O)C(C)C)n2)c(OC(C)C)cc1C1CNC1 [Final product 4] | 4 nM | – | 288 nM

SMILES | IC50 (Wild Type ALK kinase) | IC50 (NCI-H2228 cell line; 96 h) | IC50 (NCI-H2228 cell line; NCI-H2228, 96 h)
Cc1cc(Nc2ncc(Cl)c(Nc3cn(C)nc3S(=O)(=O)C(C)C)n2)c(OCC2CC2)cc1C1CCNCC1 [Final product 12] | 10 nM | – | 262 nM
Cc1cc(Nc2ncc(Cl)c(Nc3cn(C)nc3S(=O)(=O)C(C)C)n2)c(OC(C)C)cc1C1CCN(C(C)(C)CO)CC1 [Final product 152] | 4 nM | – | 86 nM
Cc1cc(Nc2ncc(Cl)c(Nc3cn(C)nc3S(=O)(=O)C(C)C)n2)c(OC(C)C)cc1C1CN(S(C)(=O)=O)C1 [Final product 168] | 14 nM | – | 440 nM
Cc1cc(Nc2ncc(Cl)c(Nc3cn(C)nc3S(=O)(=O)C(C)C)n2)c(OC2CC2)cc1[C@H]1CC[C@H](NC2CC2)CC1 [Final product 196] | 9 nM | – | 88 nM
CC(C)S(=O)(=O)c1nn(C2CC2)cc1Nc1nc(Nc2cc(Cl)c(C3CCN(C)CC3)cc2OC2CC2)ncc1Cl [Final product 48] | 2 nM | – | 115 nM
Cc1cc(Nc2ncc(Cl)c(Nc3cn(C)nc3S(=O)(=O)C(C)C)n2)c(OC(C)C)cc1[C@H]1CC[C@H](NC(C)C)CC1 [Final product 188] | 5 nM | – | 89 nM
CC(C)S(=O)(=O)c1nn(C)cc1Nc1nc(Nc2cc(C#N)c(C3CCN(C)CC3)cc2OC2CC2)ncc1Cl [Final product 49] | 8 nM | – | 165 nM
CC(C)S(=O)(=O)c1nn(C)cc1Nc1nc(Nc2ccc(C3CCN(C)CC3)cc2OC2CC2)ncc1Cl [Final product 40] | 3 nM | – | 36 nM
Cc1cc(Nc2ncc(Cl)c(Nc3cn(C)nc3S(=O)(=O)C(C)C)n2)c(OC2CC2)cc1OC1CCN(C)CC1 [Final product 111] | 3 nM | – | 188 nM
Cc1cc(Nc2ncc(Cl)c(Nc3cn(C)nc3S(=O)(=O)C(C)C)n2)c(OC2CC2)cc1C1CCN(C2COC2)CC1 [Final product 156] | 10 nM | – | 44 nM
Cc1cc(Nc2ncc(Cl)c(Nc3cn(C)nc3S(=O)(=O)CC(C)C)n2)c(OC2CC2)cc1[C@H]1CC[C@H](NC2CC2)CC1 [Final product 180] | 35 nM | – | 127 nM
CC(C)S(=O)(=O)c1nn(C)cc1Nc1nc(Nc2ccc(C3CCNCC3)cc2OC2CC2)ncc1Cl [Final product 13] | 3 nM | – | 58 nM
Cc1cc(Nc2ncc(Cl)c(Nc3cn(C)nc3S(=O)(=O)C(C)C)n2)c(OC2CC2)cc1C1CC(C)N(C)C(C)C1 (stereo not shown) [Final product 95] | 2 nM | – | 26 nM
Cc1cc(Nc2ncc(Cl)c(Nc3cn(C)nc3S(=O)(=O)CC(C)C)n2)c(OC2CC2)cc1C1CCNCC1 [Final product 28] | 9 nM | – | 134 nM
CC(C)S(=O)(=O)c1nn(C2CC2)cc1Nc1nc(Nc2ccc(C3CCN(S(C)(=O)=O)CC3)cc2OC2CC2)ncc1Cl [Final product 173] | 37 nM | – | 34 nM
CC(C)S(=O)(=O)c1nn(C)cc1Nc1nc(Nc2ccc(C3CCNCC3)cc2OC(F)(F)F)ncc1Cl [Final product 9] | 16 nM | – | 652 nM
Cc1cc(Nc2ncc(Cl)c(Nc3cn(C)nc3S(=O)(=O)CC(C)C)n2)c(OC2CC2)cc1C1CN(S(C)(=O)=O)C1 [Final product 171] | 86 nM | – | 251 nM
Cc1cc(Nc2ncc(Cl)c(Nc3cn(C)nc3S(=O)(=O)C(C)C)n2)c(OC2CC2)cc1C1CCN(S(C)(=O)=O)CC1 [Final product 167, 5-chloro-N^2-(2-cyclopropoxy-5-methyl-4-(1-methanesulfonyl-piperidin-4-yl)-phenyl)-N^4-(3-(isopropylsulfonyl)-1-methyl-1H-pyrazol-4-yl)pyrimidin-2,4-diamine] | 9 nM | – | 59 nM
Cc1cc(Nc2ncc(Cl)c(Nc3cn(C)nc3S(=O)(=O)C(C)C)n2)c(OC2CC2)cc1C1=C(Cl)CN(C)CC1 [Final product 208, 5-chloro-N^2-[4-(5-chloro-1-methyl-1,2,3,6-tetrahydro-pyridin-4-yl)-2-cyclopropoxy-5-methyl-phenyl]-N^4-[1-methyl-3-(isopropylsulfonyl)-1H-pyrazol-4-yl]-pyrimidin-2,4-diamine] | 6 nM | – | 152 nM
CC(C)S(=O)(=O)c1nn(C2CC2)cc1Nc1nc(Nc2ccc(C3CCN(C)CC3)cc2OC(F)(F)F)ncc1Cl [Final product 38] | 11 nM | – | 146 nM
